Assay results from ChEMBL document CHEMBL1629665, “Contribution of vraSR and graSR point mutations to vancomycin resistance in vancomycin-intermediate Staphylococcus aureus” (2009).
≈ marks a conversion by molar mass, not a printed value.

How the values were obtained:
Assay type in all cases: functional
[1] = system: Staphylococcus aureus; assay: Antibacterial activity against vancomycin-intermediate Staphylococcus aureus Mu50 after 24 hrs by Etest
[2] = system: Staphylococcus aureus; assay: Antibacterial activity against vancomycin-susceptible Staphylococcus aureus Mu50omega after 24 hrs by Etest
[3] = system: Staphylococcus aureus; assay: Antibacterial activity against vancomycin-susceptible Staphylococcus aureus Mu50omega expressing vraSn mutant gene after 24 hrs by Etest
[4] = system: Staphylococcus aureus; assay: Antibacterial activity against vancomycin-susceptible Staphylococcus aureus Mu50omega expressing vraSm mutant gene after 24 hrs by Etest
[5] = system: Staphylococcus aureus; assay: Antibacterial activity against vancomycin-susceptible Staphylococcus aureus Mu50omega expressing vraSm, graRm mutant gene after 24 hrs by Etest
[6] = system: Staphylococcus aureus; assay: Antibacterial activity against vancomycin-intermediate Staphylococcus aureus Mu50 after 48 hrs by Etest
[7] = system: Staphylococcus aureus; assay: Antibacterial activity against vancomycin-susceptible Staphylococcus aureus Mu50omega after 48 hrs by Etest
[8] = system: Staphylococcus aureus; assay: Antibacterial activity against vancomycin-susceptible Staphylococcus aureus Mu50omega expressing vraSn mutant gene after 48 hrs by Etest
[9] = system: Staphylococcus aureus; assay: Antibacterial activity against vancomycin-susceptible Staphylococcus aureus Mu50omega expressing vraSm mutant gene after 48 hrs by Etest
[10] = system: Staphylococcus aureus; assay: Antibacterial activity against vancomycin-susceptible Staphylococcus aureus Mu50omega expressing vraSm, graRm mutant gene after 48 hrs by Etest

Molecule | MIC ([1]; Mu50, 24 h) [µg/mL] | MIC [2] [µg/mL] | MIC [3] [µg/mL] | MIC [4] [µg/mL] | MIC [5] [µg/mL] | MIC ([6]; Mu50, 48 h) [µg/mL] | MIC [7] [µg/mL] | MIC [8] [µg/mL] | MIC [9] [µg/mL] | MIC [10] [µg/mL] | MIC [1] [µg/mL] | MIC [6] [µg/mL]
C[C@H]1c2cccc(O)c2C(=O)C2=C(O)[C@]3(O)C(=O)C(C(N)=O)=C(O)[C@@H](N(C)C)[C@@H]3[C@@H](O)[C@@H]21.O [DOXYCYCLINE] | 8 | 8 | 8 | 8 | 8 | > 256 | > 256 | – | – | – | – | –
CC[C@H]1OC(=O)[C@H](C)[C@@H](O[C@H]2C[C@@](C)(OC)[C@@H](O)[C@H](C)O2)[C@H](C)[C@@H](O[C@@H]2O[C@H](C)C[C@H](N(C)C)[C@H]2O)[C@](C)(O)C[C@@H](C)C(=O)[C@H](C)[C@@H](O)[C@]1(C)O [ERYTHROMYCIN] | > 250 | > 256 | – | – | – | > 250 | > 256 | – | – | – | – | –
C[C@@H](O)[C@H]1C(=O)N2C(C(=O)O)=C(SCCNC=N)C[C@H]12 [IMIPENEM ANHYDROUS] | > 32 | 0.38 (≈ 1.27 µM) | > 32 | > 32 | > 32 | > 32 | 0.38 (≈ 1.27 µM) | > 32 | > 32 | > 32 | – | –
C[C@H]1COc2c(N3CCN(C)CC3)c(F)cc3c(=O)c(C(=O)O)cn1c23.C[C@H]1COc2c(N3CCN(C)CC3)c(F)cc3c(=O)c(C(=O)O)cn1c23.O [LEVOFLOXACIN] | > 32 | > 32 | – | – | – | > 32 | > 32 | – | – | – | – | –
CC(=O)NC[C@H]1CN(c2ccc(N3CCOCC3)c(F)c2)C(=O)O1 [LINEZOLID] | 0.5 (≈ 1.48 µM) | 0.5 (≈ 1.48 µM) | 0.5 (≈ 1.48 µM) | 0.5 (≈ 1.48 µM) | 0.5 (≈ 1.48 µM) | 0.5 (≈ 1.48 µM) | 0.5 (≈ 1.48 µM) | 0.5 (≈ 1.48 µM) | 0.5 (≈ 1.48 µM) | 0.5 (≈ 1.48 µM) | – | –
COc1cccc(OC)c1C(=O)N[C@@H]1C(=O)N2[C@@H]1SC(C)(C)[C@@H]2C(=O)O [METHICILLIN] | > 256 | > 256 | – | – | – | > 256 | > 256 | – | – | – | – | –
CN(C)c1ccc(O)c2c1C[C@H]1C[C@H]3[C@H](N(C)C)C(O)=C(C(N)=O)C(=O)[C@@]3(O)C(O)=C1C2=O [MINOCYCLINE] | 12 (≈ 26.2 µM) | 10 (≈ 21.9 µM) | 8 (≈ 17.5 µM) | 8 (≈ 17.5 µM) | 8 (≈ 17.5 µM) | 24 (≈ 52.5 µM) | 24 (≈ 52.5 µM) | 24 (≈ 52.5 µM) | 24 (≈ 52.5 µM) | 24 (≈ 52.5 µM) | – | –
Cc1onc(-c2ccccc2)c1C(=O)N[C@@H]1C(=O)N2[C@@H]1SC(C)(C)[C@@H]2C(=O)O [OXACILLIN] | > 256 | 8 (≈ 19.9 µM) | > 256 | > 256 | > 256 | > 256 | 8 (≈ 19.9 µM) | > 256 | > 256 | > 256 | – | –
C[C@@H]1CN(c2c(F)c(N)c3c(=O)c(C(=O)O)cn(C4CC4)c3c2F)C[C@H](C)N1 [SPARFLOXACIN] | > 32 | > 32 | – | – | – | > 32 | > 32 | – | – | – | – | –
CN(C)[C@@H]1C(O)=C(C(N)=O)C(=O)[C@@]2(O)C(O)=C3C(=O)c4c(O)cccc4[C@@](C)(O)[C@H]3C[C@@H]12 [TETRACYCLINE] | 32 (≈ 72 µM) | 32 (≈ 72 µM) | 24 (≈ 54 µM) | 24 (≈ 54 µM) | 24 (≈ 54 µM) | 48 (≈ 108 µM) | 48 (≈ 108 µM) | 48 (≈ 108 µM) | 48 (≈ 108 µM) | 48 (≈ 108 µM) | – | –
CN[C@H](CC(C)C)C(=O)N[C@H]1C(=O)N[C@@H](CC(N)=O)C(=O)N[C@H]2C(=O)N[C@H]3C(=O)N[C@H](C(=O)N[C@H](C(=O)O)c4cc(O)cc(O)c4-c4cc3ccc4O)[C@H](O)c3ccc(c(Cl)c3)Oc3cc2cc(c3O[C@@H]2O[C@H](CO)[C@@H](O)[C@H](O)[C@H]2O[C@H]2C[C@](C)(N)[C@H](O)[C@H](C)O2)Oc2ccc(cc2Cl)[C@H]1O [VANCOMYCIN] | 6 (≈ 4.14 µM) | 0.5 (≈ 0.345 µM) | 3.5 (≈ 2.42 µM) | 4.5 (≈ 3.11 µM) | 6 (≈ 4.14 µM) | 7 (≈ 4.83 µM) | 1 (≈ 0.69 µM) | 4 (≈ 2.76 µM) | 5 (≈ 3.45 µM) | 7 (≈ 4.83 µM) | – | –
GENTAMICIN | – | 0.064 | 64 | 0.064 | 0.064 | – | 0.064 | 0.064 | 0.064 | 0.064 | 0.128 | 0.128
